Experiments:
[1] = target: T1, Tdp1 (Homo sapiens, UniProt Q9NUW8); experiment: Real-time detection of Tdp1 activity (FAM/BHQ1 oligonucleotide biosensor); assay type: biochemical; conditions: for IC50: Tdp1 inhibition, 6-point concentration response curve; for Tdp1 inhibitory activity (in words): compared with the other derivatives of the series
T1 construct: made in house
Experimental: A previously designed, real-time, hexadecameric oligonucleotide biosensor with 5(6)-carboxyfluorescein (FAM) at the 5′ end and fluorophore quencher BHQ1 (Black Hole Quencher-1) at the 3′-end was used to determine the inhibitory properties of the new compounds.
Real-Time Detection of Tdp1 Activity. The Tdp1 activity measurements were carried out as described. […] Tdp1 inhibition was calculated by comparing the rate of increase in fluorescence in the presence of the compound to that of DMSO control wells. IC50 values were determined using a 6-point concentration response curve. The data were imported into the MARS Data Analysis 2.0 program (BMG LABTECH), and the slope during the linear phase (here data from 0 to 7 min) was calculated.

[2] = system: Krebs-2 carcinoma; experiment: Influence on antitumor effect of tpc, Krebs-2 ascites tumor model; assay type: in vivo, mice; conditions: for weight of the ascitic tumor: compared to only tpc
Experimental: A study of the influence of 3ba on the antitumor effect of tpc (topotecan) was performed using a murine Krebs-2 carcinoma model. An ascitic tumor model combines the advantages of in vitro and in vivo approaches in studying the cytotoxic effect of compounds, since ascitic cells grow in the context of the organism (in vivo), and the intraperitoneal administration of drug ensures its direct contact with tumor cells (in vitro). The experiments were performed using female C57BL/6 mice, which were injected intraperitoneally with 2 × 10^5 ascitic cells on day zero. The mice were divided into six groups of ten animals each.
(§1) Lab animals. Thre-e to four-month-old male and female C57Bl/6 mice from the breeding colony of the Institute of Cytology and Genetics, SB RAS, were used in the study. The animals were kept on sawdust in plastic cages with 5–7 mice per cage, with free access to ground food (“Laboratorkorm”, Moskow, Russia) and tap water. All experiments were performed in accordance with protocols approved by the Animal Care and Use Committee of the Institute of Cytology and Genetics. Also, all experimental procedures were performed in accordance with the Directive 2010/63/EU for animal experiments.
(§2) Tumor models. The experimental tumor used was Lewis Lung Carcinoma (LLC) and Krebs-2. The animals were treated with tpc and the Tdp1 inhibitor 3ba two days after tumor transplantation. The tumor was transplanted into the muscles of the thigh by 0.2 million cells per mouse. Tpc (Sindan Pharma SRL, Romania) was administered intraperitoneally at a single dose of 0.5 mg/kg; Tdp1 inhibitor 3ba was administrated intraperitoneally at a single dose of 20, 40, or 80 mg/kg (for Krebs-2), or 120 mg/kg (for LLC) in 15% dimethyl sulfoxide (DMSO)–10% Tween-80 suspension in water (0.2 mL of suspension per mouse) simultaneously with tpc. Control mice were injected with a DMSO-Tween-80 mixture into the stomach.
(§3) Statistical analysis. The experimenter measuring and calculating the primary animal data (tumor size, lifespan) was blinded. After unblinding, the animal data were statistically processed using oneway ANOVA. Post-hoc testing was completed using Turkey’s Honestly Significant Difference (HSD). p < 0.05 was considered to be statistically significant. The statistical package […] version 12.5 was used for analysis. All results are expressed as mean ± SEM.

[3] = system: Lewis carcinoma; experiment: Lifespan of mice with ascites variant of Lewis carcinoma; assay type: in vivo; conditions: for prolongation of life: monotherapy at selected doses (tpc 0.5 mg/kg or 3ba 120 mg/kg), unreliable, p > 0.05; for increase in lifespan: tpc + 3ba 120 mg/kg
Experimental: We then examined the effect of 3ba in combination with tpc on the lifespan of mice. C57BL/6 mice were intraperitoneally inoculated with the ascites variant of Lewis carcinoma. Group 1: control without treatment; group 2: tpc 0.5 mg/kg intraperitoneally; group 3: tpc and 3ba intraperitoneally 120 mg/kg; and group 4: 3ba 120 mg/kg only.
as §1, §2, §3

[4] = target: T2, human Tdp1 (residues 149-608) (Homo sapiens, UniProt Q9NUW8); experiment: Intrinsic tryptophan fluorescence quenching binding assay; conditions: Tdp1 10 µM, 20 mM Tris, 250 mM NaCl, pH 8; triplicate; read-out: dissociation constant (KD)
T2 construct: human Tdp1 (residues 149-608); made in house; host or cells: Escherichia coli BL21 (DE3)
T2 sequence (Q9NUW8 149-608): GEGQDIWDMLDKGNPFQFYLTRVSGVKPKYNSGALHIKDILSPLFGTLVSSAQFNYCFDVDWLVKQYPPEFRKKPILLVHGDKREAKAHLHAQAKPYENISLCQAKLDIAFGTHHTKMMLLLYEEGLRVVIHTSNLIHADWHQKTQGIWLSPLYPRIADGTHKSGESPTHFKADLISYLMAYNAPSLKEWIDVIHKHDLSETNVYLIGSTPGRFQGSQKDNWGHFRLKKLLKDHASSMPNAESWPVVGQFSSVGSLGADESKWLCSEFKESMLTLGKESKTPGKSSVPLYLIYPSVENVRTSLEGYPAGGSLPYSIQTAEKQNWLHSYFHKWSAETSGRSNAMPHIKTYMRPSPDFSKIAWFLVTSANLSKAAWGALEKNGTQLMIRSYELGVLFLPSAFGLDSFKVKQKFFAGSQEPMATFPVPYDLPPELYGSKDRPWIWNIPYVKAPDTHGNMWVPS
Text: Derivatives of nopol were the most complex compounds to synthesize and purify. Therefore, they were excluded from further consideration. Since we previously obtained contradictory results in in vivo experiments with the myrtenol derivative 2 (unpublished data), in this work, we decided to focus on geraniol derivatives for the in vivo studies. […] In addition to the activity assay that we reported above, we wanted to confirm the interactions between compound 3ba and Tdp1 before progressing to in vivo studies. Using an intrinsic tryptophan fluorescence quenching assay that we previously applied to study the binding interactions of Tdp1 and its inhibitors, we evaluated the binding of compound 3ba to recombinant Tdp1. Clear quenching of the Tdp1 intrinsic fluorescence was observed upon the addition of 3ba (Supplementary Figure S1). […]
Binding Assay. […] Intrinsic protein fluorescence was measured using PerkinElmer EnSpire Multimode Reader. […] The excitation wavelength was 280 nm and the intrinsic fluorescence was measured at 350 nm. […] Dissociation constants (KD) were calculated using the following formula, that takes nonspecific binding into account. […]
In this formula, I indicates changes in fluorescence intensity from the titration, Imax indicates the maximum fluorescence intensity change, [Lᴛ] is the titration ligand concentration, and Ns is the non-specific term. […]

T1 sequence (Q9NUW8 whole entry): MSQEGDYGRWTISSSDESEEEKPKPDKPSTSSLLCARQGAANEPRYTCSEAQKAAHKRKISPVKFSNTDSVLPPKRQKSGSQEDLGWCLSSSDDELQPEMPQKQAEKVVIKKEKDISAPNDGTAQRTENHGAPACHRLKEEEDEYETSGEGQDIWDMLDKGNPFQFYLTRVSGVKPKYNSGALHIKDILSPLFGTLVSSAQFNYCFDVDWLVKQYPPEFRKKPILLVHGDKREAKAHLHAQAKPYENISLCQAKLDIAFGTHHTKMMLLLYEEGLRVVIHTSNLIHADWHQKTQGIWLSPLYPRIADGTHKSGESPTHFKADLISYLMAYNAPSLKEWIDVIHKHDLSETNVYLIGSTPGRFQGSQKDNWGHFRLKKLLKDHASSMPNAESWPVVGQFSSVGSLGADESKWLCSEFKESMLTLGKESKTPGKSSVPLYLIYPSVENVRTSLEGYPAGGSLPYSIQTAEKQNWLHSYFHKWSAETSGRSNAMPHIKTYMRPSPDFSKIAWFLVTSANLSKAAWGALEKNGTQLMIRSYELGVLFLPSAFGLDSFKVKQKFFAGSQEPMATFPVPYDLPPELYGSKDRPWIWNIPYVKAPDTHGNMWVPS

| SMILES | IC50 [1] | further results |
| --- | --- | --- |
| CC1(C)[C@H]2CC=C(CCOc3ccc4c(-c5ccc(F)cc5)cc(=O)oc4c3)[C@@H]1C2 [3bb, 7-(2-((1R,5S)-6,6-Dimethylbicyclo[3.1.1]hept-2-en-2-yl)ethoxy)-4-(4-fluorophenyl)-2H-chromen-2-one] | 7500 ± 700 nM | Tdp1 inhibitory activity (in words) [1]: markedly lower activity |
| CC1(C)[C@H]2CC=C(COc3ccc4c(-c5ccc(F)cc5)cc(=O)oc4c3)[C@@H]1C2 [3bc, 7-(((1R,5S)-6,6-Dimethylbicyclo[3.1.1]hept-2-en-2-yl)methoxy)-4-(4-fluorophenyl)-2H-chromen-2-one] | 990 ± 300 nM | – |
| COc1ccc(-c2cc(=O)oc3cc(OCC4=CC[C@@H]5C[C@H]4C5(C)C)ccc23)cc1 [3dd, 7-(((1S,5R)-6,6-Dimethylbicyclo[3.1.1]hept-2-en-2-yl)methoxy)-4-(4-methoxyphenyl)-2H-chromen-2-one] | 590 ± 60 nM | – |
| CC1(C)[C@H]2CC=C(COc3ccc4c(-c5ccc(Br)cc5)cc(=O)oc4c3)[C@@H]1C2 [3cc, 4-(4-Bromophenyl)-7-(((1R,5S)-6,6-dimethylbicyclo[3.1.1]hept-2-en-2-yl)methoxy)-2H-chromen-2-one] | 3230 ± 350 nM | – |
| CC1(C)[C@H]2CC=C(CCOc3ccc4c(-c5ccc(Br)cc5)cc(=O)oc4c3)[C@@H]1C2 [3cb, 4-(4-Bromophenyl)-7-(2-((1R,5S)-6,6-dimethylbicyclo[3.1.1]hept-2-en-2-yl)ethoxy)-2H-chromen-2-one] | 590 ± 70 nM | – |
| COc1ccc(-c2cc(=O)oc3cc(OCc4ccccc4)ccc23)cc1 [10d, 7-(Benzyloxy)-4-(4-methoxyphenyl)-2H-chromen-2-one] | 3310 ± 980 nM | – |
| COc1ccc(-c2cc(=O)oc3cc(OCC4=CC[C@H]5C[C@@H]4C5(C)C)ccc23)cc1 [3dc, 7-(((1R,5S)-6,6-Dimethylbicyclo[3.1.1]hept-2-en-2-yl)methoxy)-4-(4-methoxyphenyl)-2H-chromen-2-one] | 590 ± 150 nM | – |
| CC(C)=CCC/C(C)=C/COc1ccc2c(-c3ccc(Br)cc3)cc(=O)oc2c1 [3ca, (E)-4-(4-Bromophenyl)-7-(3,7-dimethylocta-2,6-dienyloxy)-2H-chromen-2-one] | 900 ± 370 nM | – |
| CC(C)=CCC/C(C)=C/COc1ccc2c(-c3ccc(F)cc3)cc(=O)oc2c1 [3ba, (E)-7-(3,7-Dimethylocta-2,6-dienyloxy)-4-(4-fluorophenyl)-2H-chromen-2-one] | 620 nM | weight of the ascitic tumor / tumor growth ([2]; 3ba 20 mg/kg i.p. + tpc 0.5 mg/kg i.p. (group 5)): did not affect tumor growth; weight of the ascitic tumor ([2]; 3ba 40 mg/kg i.p. + tpc 0.5 mg/kg i.p. (group 4)): decrease in ascites weight, although the difference between groups 2 and 4 was not significant; weight of the ascitic tumor ([2]; 3ba 80 mg/kg i.p. + tpc 0.5 mg/kg i.p. (group 3)): significant decrease; weight of the ascitic tumor / tumor growth ([2]; 3ba 80 mg/kg i.p. in the absence of tpc (group 6)): did not affect tumor growth; number of tumor cells in ascites ([2]; tpc 0.5 mg/kg + 3ba 80 mg/kg i.p. (group 3), only one mouse gave ascitic fluid): 250 mln; prolongation of life [3]: 13–19%; increase in lifespan ([3]; compared with mice receiving only tpc, p = 0.0065): 26%; increase in lifespan ([3]; compared with the control group, p = 0.0002): 42%; Kd [4]: 63000 ± 11000 nM |
| CC1(C)[C@H]2CC=C(CCOc3ccc4c(-c5ccccc5)cc(=O)oc4c3)[C@@H]1C2 [3ab, 7-(2-((1R,5S)-6,6-Dimethylbicyclo[3 1.1]hept-2-en-2-yl)ethoxy)-4-phenyl-2H-chromen-2-one] | 410 ± 120 nM | – |
| CC1(C)[C@@H]2CC=C(COc3ccc4c(-c5ccc(Br)cc5)cc(=O)oc4c3)[C@H]1C2 [3cd, 4-(4-Bromophenyl)-7-(((1S,5R)-6,6-dimethylbicyclo[3.1.1]hept-2-en-2-yl)methoxy)-2H-chromen-2-one] | 430 ± 50 nM | – |
| CC1(C)[C@@H]2CC=C(COc3ccc4c(-c5ccc(F)cc5)cc(=O)oc4c3)[C@H]1C2 [3bd, 7-(((1S,5R)-6,6-Dimethylbicyclo[3.1.1]hept-2-en-2-yl)methoxy)-4-(4-fluorophenyl)-2H-chromen-2-one] | 1030 ± 580 nM | – |
| CC(C)=CCC/C(C)=C/COc1ccc2c(-c3ccccc3)cc(=O)oc2c1 [3aa, (E)-7-(3,7-Dimethylocta-2,6-dienyloxy)-4-phenyl-2H-chromen-2-one] | 490 ± 140 nM | – |
| CC1(C)[C@@H]2CC=C(COc3ccc4c(-c5ccccc5)cc(=O)oc4c3)[C@H]1C2 [3ad, 7-(((1S,5R)-6,6-Dimethylbicyclo[3.1.1]hept-2-en-2-yl)methoxy)-4-phenyl-2H-chromen-2-one] | 480 ± 110 nM | – |
| COc1ccc(-c2cc(=O)oc3cc(OCCC4=CC[C@H]5C[C@@H]4C5(C)C)ccc23)cc1 [3db, 7-(2-((1R,5S)-6,6-Dimethylbicyclo[3.1.1]hept-2-en-2-yl)ethoxy)-4-(4-methoxyphenyl)-2H-chromen-2-one] | 910 ± 130 nM | – |
| CC1(C)[C@H]2CC=C(COc3ccc4c(-c5ccccc5)cc(=O)oc4c3)[C@@H]1C2 [3ac, 7-(((1R,5S)-6,6-Dimethylbicyclo[3.1.1]hept-2-en-2-yl)methoxy)-4-phenyl-2H-chromen-2-one] | 460 ± 160 nM | Tdp1 inhibitory activity (in words) [1]: slightly less active |
| CC[C@@]1(O)C(=O)OCc2c1cc1n(c2=O)Cc2cc3c(CN(C)C)c(O)ccc3nc2-1 [tpc, topotecan, reference compound] | – | number of tumor cells in ascites ([2]; tpc only, 0.5 mg/kg i.p. (group 2), control 1750 million per mouse): 950 mln; prolongation of life [3]: 13–19% |
| O=c1cc(-c2ccc(Br)cc2)c2ccc(OCc3ccccc3)cc2o1 [10c, 7-(Benzyloxy)-4-(4-bromophenyl)-2H-chromen-2-one] | 2400 ± 800 nM | – |

— publication PMC6982354, “Promising New Inhibitors of Tyrosyl-DNA Phosphodiesterase I (Tdp 1) Combining 4-Arylcoumarin and Monoterpenoid Moieties as Components of Complex Antitumor Therapy” (International Journal of Molecular Sciences, 2019)
